Laboratory results as given in patent US20130183696A1, “METHODS OF USE AND KIT FOR MEASUREMENT OF LIPOPOLYSACCHARIDE WITH A TIME RESOLVED FLUORESCENCE BASED ASSAY” (priority 2010, published 2013).

How the values were obtained:
[1] = target: T1, recombinant rat A1 adenosine receptor (Rattus norvegicus, UniProt P25099); experiment: A1 adenosine receptor TRF Eu-GTP binding assay, standard curve for LPS; format: biochemical; details: CHO cell membranes, Eu-GTP 10 nM, % basal activity; mean of 8-10 independent assays, LPS 10 pg/mL-100 ng/mL
T1 construct: purchased PerkinElmer, Waltham, Mass; host or cells: CHO cells (membranes)
T1 sequence (P25099 1-326): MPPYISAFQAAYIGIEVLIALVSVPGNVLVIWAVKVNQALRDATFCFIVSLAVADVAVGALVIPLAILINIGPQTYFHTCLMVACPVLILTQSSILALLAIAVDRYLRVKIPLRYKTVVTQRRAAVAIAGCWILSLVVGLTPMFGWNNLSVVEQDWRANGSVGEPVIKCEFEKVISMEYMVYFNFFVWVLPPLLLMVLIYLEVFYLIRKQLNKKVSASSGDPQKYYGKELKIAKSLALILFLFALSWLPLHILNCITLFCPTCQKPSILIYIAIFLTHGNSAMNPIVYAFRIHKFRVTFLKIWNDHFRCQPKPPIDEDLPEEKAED
Description: To generate a standard LPS/endotoxin standard curve membranes prepared from CHO cells (1 unit/well corresponding to approximately 20 μg of protein per well; PerkinElmer, Waltham, Mass.) expressing the recombinant rat A1 adenosine receptor are preincubated in an Acrowell filter plate (Pall Life Sciences, Ann Arbor, Mich.) in the presence of LPS/endotoxin (USP, Rockville, Md.) (0.01-750 ng/mL). The endotoxin stock solution is prepared by dissolving 10,000 endotoxin units (corresponding to 1000 ng) in 333 μL of endotoxin free water. […] Each assay point is evaluated in triplicate. […] Fluorescence in each well is determined with an Infinite F-200 PRO (Tecan, Grodig, Austria) using fluorescent top read with an excitation wavelength of 320 nm, emission wavelength of 620 nm, and gain setting of 109. Eu-GTP basal activity is calculated as the difference between total Eu-GTP bound and nonspecific Eu-GTP bound. Percent (%) basal is calculated as follows: [(test condition−nonspecific)/(basal activity)]*100. […] The standard curve is analyzed by nonlinear regression (GraphPad Prism, version 5, GraphPad Software, La Jolla, Calif.) using a sigmoidal dose-response curve with variable slope to determine EC50. Each standard curve represents a minimum of three independent experiments and final data are expressed as the mean±SEM. […]

[2] = cited from earlier work

Substance: lipopolysaccharide [LPS]
- sensitivity of the assay for LPS [1]: 10 pg/mL

Substance: drotrecogin alfa [Xigris, drotrecogin alfa [activated]]
- adverse side effect ([2]; in vivo): serious adverse side effect of bleeding
- reduction of absolute mortality compared to placebo ([2]; sepsis patients, definitive large clinical trials (Bernard et al., 2001)): 6%
